From article PMC12656268, “Venom Peptides Across Asian and American Tarantulas Utilize Dual Pharmacology to Target Activation and Fast Inactivation of Voltage-Gated Sodium Channels” (Toxins, 2025)
Positions of bridges follow the written chain, without caps; N, C: chain ends. Residues, ends and D or L forms follow the SMILES beside them.

Columns and labels:
hNaV1.1 to hNaV1.7 = assay: NaV subtype preference across NaV1.1 to NaV1.7, patch clamp; type: cell-based, human; details: NaV1.1 to NaV1.7, closed-state voltage protocol
Experimental: Unless otherwise specified, all cell culture reagents were obtained from Life Technologies (Carlsbad, CA, USA). The human neuroblastoma cell line SH-SY5Y (ATCC CRL-2266; Manassas, VA, USA) was maintained in RPMI medium supplemented with 15% fetal bovine serum (FBS) and 2 mM L-glutamine. HEK293 cells stably expressing human NaV channel isoforms together with the β1 auxiliary subunit (SB Drug Discovery, Glasgow, UK) were propagated in Minimal Essential Medium (MEM; Sigma-Aldrich, St. Louis, MO, USA) containing 10% FBS, 100 U/mL penicillin, 100 µg/mL streptomycin, 2 mM L-glutamine, and selective antibiotics (blasticidin, geneticin, and zeocin) at concentrations recommended by the supplier. HEK293T cells expressing the human CaV3.2 channel (a generous gift from Prof. Emmanuel Bourinet, Institut de Génomique Fonctionnelle, Université de Montpellier, France, and Prof. Edward Perez-Reyes, University of Virginia School of Medicine, USA) were grown in Dulbecco’s MEM supplemented with 10% FBS, 100 U/mL penicillin, 100 µg/mL streptomycin, and 750 µg/mL geneticin.
Sodium channel currents were recorded from HEK293 cells expressing human NaV isoforms together with the β1 auxiliary subunit (SB Drug Discovery, Glasgow, UK) using the QPatch 16X automated whole-cell patch-clamp platform (Sophion Bioscience A/S, Ballerup, Denmark). The external recording solution contained (in mM) the following: 140 NaCl, 3 KCl, 1 CaCl2, 1 MgCl2, 0.1 CdCl2, 20 tetraethylammonium chloride (TEA-Cl), and 5 HEPES; pH was adjusted to 7.3 and osmolarity to 320 mOsm. The internal (pipette) solution consisted of (in mM) the following: 140 CsF, 10 NaCl, 10 HEPES, and 1/5 EGTA/CsOH, also adjusted to pH 7.3 and 320 mOsm. […] For determining the potency of Oa1a peptides to inhibit peak current, the maximum peak current within the 20 ms at 0 mV was measured. For determining the potency of Oa1a-NH2 to slow fast inactivation, peak current values were measured at 20 ms of the 0 mV depolarization step. […]
For calcium influx experiments, bioactivity comparisons between venom fractions and controls were based on the difference between the maximal and minimal fluorescence intensity values obtained from single-replicate assays. […] Reversibility and dissociation kinetics were analyzed by fitting data with a single-phase exponential decay model, while voltage-dependence of steady-state activation and inactivation parameters were derived from Boltzmann sigmoid fits of normalized conductance (G/Gmax) or current (I/Imax) values to determine the half-activation or half-inactivation voltages (V50). Data are expressed as mean ± SEM, where n represents the number of individual cells analyzed.

NaV1.3 = NaV1.3 (Homo sapiens, UniProt Q9NY46); assay: Slowing of fast inactivation of NaV1.3; type: cell-based
Experimental: Sodium channel currents were recorded from HEK293 cells expressing human NaV isoforms together with the β1 auxiliary subunit (SB Drug Discovery, Glasgow, UK) using the QPatch 16X automated whole-cell patch-clamp platform (Sophion Bioscience A/S, Ballerup, Denmark). The external recording solution contained (in mM) the following: 140 NaCl, 3 KCl, 1 CaCl2, 1 MgCl2, 0.1 CdCl2, 20 tetraethylammonium chloride (TEA-Cl), and 5 HEPES; pH was adjusted to 7.3 and osmolarity to 320 mOsm. The internal (pipette) solution consisted of (in mM) the following: 140 CsF, 10 NaCl, 10 HEPES, and 1/5 EGTA/CsOH, also adjusted to pH 7.3 and 320 mOsm. Cells were voltage-clamped at a holding potential of −80 mV, and inward Na^+ currents were evoked by 20 ms depolarizing pulses to 0 mV following a 200 ms hyperpolarizing prepulse to −120 mV. To obtain concentration–response curves, cells at holding potential were incubated for 5 min with increasing concentrations of Oa1a peptides. For determining the potency of Oa1a peptides to inhibit peak current, the maximum peak current within the 20 ms at 0 mV was measured. For determining the potency of Oa1a-NH2 to slow fast inactivation, peak current values were measured at 20 ms of the 0 mV depolarization step. Ion currents (INa) were plotted as I/Imax, where I = current value and Imax = highest current value within the experiment.
For calcium influx experiments, bioactivity comparisons between venom fractions and controls were based on the difference between the maximal and minimal fluorescence intensity values obtained from single-replicate assays. Electrophysiological data analysis was conducted using GraphPad Prism (version 8; GraphPad Software, San Diego, CA, USA). Nonlinear regression was applied to fit the concentration–response relationships using a variable Hill slope: log(inhibitor) versus normalized response for determining IC50 values, and log(agonist) versus normalized response for EC50 calculations. Reversibility and dissociation kinetics were analyzed by fitting data with a single-phase exponential decay model, while voltage-dependence of steady-state activation and inactivation parameters were derived from Boltzmann sigmoid fits of normalized conductance (G/Gmax) or current (I/Imax) values to determine the half-activation or half-inactivation voltages (V50). Data are expressed as mean ± SEM, where n represents the number of individual cells analyzed.

Chain of NaV1.3 (Q9NY46 whole entry, canonical isoform): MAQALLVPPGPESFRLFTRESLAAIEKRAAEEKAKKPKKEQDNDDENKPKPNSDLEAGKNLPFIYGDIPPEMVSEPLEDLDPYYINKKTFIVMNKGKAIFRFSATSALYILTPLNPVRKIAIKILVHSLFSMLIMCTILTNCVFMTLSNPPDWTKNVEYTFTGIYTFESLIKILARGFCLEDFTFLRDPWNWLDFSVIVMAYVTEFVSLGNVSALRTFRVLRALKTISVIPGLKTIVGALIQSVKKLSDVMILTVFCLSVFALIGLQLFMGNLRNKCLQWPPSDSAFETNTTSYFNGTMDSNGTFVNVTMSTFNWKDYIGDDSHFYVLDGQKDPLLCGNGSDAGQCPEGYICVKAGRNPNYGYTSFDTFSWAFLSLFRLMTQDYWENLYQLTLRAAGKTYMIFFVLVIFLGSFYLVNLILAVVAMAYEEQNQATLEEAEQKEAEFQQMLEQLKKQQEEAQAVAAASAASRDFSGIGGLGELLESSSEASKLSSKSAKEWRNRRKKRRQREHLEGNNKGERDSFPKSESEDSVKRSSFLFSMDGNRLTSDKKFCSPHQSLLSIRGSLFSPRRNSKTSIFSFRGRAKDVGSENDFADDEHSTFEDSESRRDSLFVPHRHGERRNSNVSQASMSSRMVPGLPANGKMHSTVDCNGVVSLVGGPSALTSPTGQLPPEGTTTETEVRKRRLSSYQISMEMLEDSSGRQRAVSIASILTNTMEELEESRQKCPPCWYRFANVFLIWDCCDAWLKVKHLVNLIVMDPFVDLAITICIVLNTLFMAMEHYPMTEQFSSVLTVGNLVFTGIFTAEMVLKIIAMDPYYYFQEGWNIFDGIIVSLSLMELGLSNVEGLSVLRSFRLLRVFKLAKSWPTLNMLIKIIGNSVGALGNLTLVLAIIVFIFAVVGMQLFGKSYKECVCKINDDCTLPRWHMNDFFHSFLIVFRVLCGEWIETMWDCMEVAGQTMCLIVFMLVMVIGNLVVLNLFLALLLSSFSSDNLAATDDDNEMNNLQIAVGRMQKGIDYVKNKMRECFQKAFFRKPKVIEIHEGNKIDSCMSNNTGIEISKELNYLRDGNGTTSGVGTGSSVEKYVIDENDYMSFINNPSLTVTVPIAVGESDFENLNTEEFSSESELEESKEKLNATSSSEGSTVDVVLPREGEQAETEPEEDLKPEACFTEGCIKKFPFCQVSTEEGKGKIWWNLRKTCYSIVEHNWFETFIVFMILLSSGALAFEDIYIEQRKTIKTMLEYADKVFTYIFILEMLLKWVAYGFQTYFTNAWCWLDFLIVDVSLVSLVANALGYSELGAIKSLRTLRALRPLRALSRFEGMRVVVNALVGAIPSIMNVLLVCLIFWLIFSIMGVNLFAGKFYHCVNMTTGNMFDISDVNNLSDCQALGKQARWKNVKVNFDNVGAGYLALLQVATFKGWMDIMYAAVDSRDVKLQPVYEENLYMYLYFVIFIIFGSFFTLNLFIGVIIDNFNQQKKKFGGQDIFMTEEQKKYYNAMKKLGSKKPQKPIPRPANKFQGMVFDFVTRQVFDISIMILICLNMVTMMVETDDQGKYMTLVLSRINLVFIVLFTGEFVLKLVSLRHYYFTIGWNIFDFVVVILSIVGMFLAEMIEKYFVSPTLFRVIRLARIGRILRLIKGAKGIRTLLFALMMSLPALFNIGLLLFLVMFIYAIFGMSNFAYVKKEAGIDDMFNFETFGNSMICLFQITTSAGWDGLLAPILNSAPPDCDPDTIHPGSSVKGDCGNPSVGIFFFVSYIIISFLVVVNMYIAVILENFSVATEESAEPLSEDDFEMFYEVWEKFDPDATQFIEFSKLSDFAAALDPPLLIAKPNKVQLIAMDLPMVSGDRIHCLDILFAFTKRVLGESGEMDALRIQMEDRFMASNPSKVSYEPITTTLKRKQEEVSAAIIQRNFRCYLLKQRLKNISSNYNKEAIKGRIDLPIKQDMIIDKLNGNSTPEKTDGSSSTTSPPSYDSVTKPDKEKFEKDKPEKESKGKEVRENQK
Chain of NaV1.3 (Q07699 19-218, further chain): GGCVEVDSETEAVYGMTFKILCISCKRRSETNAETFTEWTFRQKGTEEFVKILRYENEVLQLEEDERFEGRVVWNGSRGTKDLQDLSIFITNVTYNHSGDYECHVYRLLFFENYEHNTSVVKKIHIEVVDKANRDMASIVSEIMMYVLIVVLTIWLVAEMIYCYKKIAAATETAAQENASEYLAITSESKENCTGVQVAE

## CC(C)C[C@@H]1NC(=O)[C@H](Cc2ccccc2)NC(=O)[C@H](Cc2ccc(O)cc2)NC(=O)[C@H](CCCNC(=N)N)NC(=O)[C@@H](NC(=O)[C@H](CCC(=O)O)NC(=O)CN)CSSC[C@@H]2NC(=O)[C@@H]3CSSC[C@@H](C(=O)N[C@H](C(=O)N[C@@H](Cc4c[nH]c5ccccc45)C(=O)N[C@@H](CC(=O)O)C(=O)N[C@@H](Cc4c[nH]c5ccccc45)C(=O)N[C@H](C(=O)N[C@@H](Cc4ccccc4)C(=O)O)[C@@H](C)O)C(C)C)NC(=O)[C@H](Cc4c[nH]c5ccccc45)NC(=O)[C@H](CCC(N)=O)NC(=O)[C@H](Cc4c[nH]cn4)NC(=O)[C@H](CCCCN)NC(=O)[C@H](CC(N)=O)NC(=O)[C@H](Cc4c[nH]cn4)NC(=O)[C@H](CSSC[C@H](NC(=O)CNC(=O)CNC1=O)C(=O)N[C@@H](CO)C(=O)N[C@@H](CCC(N)=O)C(=O)NCC(=O)N[C@@H](CCC(=O)O)C(=O)N[C@@H](CCCCN)C(=O)N3)NC(=O)[C@H](C(C)C)NC(=O)[C@H](CC(C)C)NC(=O)[C@H](Cc1c[nH]cn1)NC(=O)[C@H](CCC(=O)O)NC2=O [rOa1a] (H-GECRYFLGGCSQGEKCCEHLVCHNKHQWCVWDWTF-OH; disulfide 3-17, 10-22, 16-29; N-terminus and C-terminus assumed)
hNaV1.1 to hNaV1.7
  NaV subtype preference of inhibition (in words): preference for inhibiting NaV1.2, NaV1.3, NaV1.6, and NaV1.7
hNaV1.1 to hNaV1.7; listed as recombinant Oa1a
  NaV subtype preference of inhibition (in words): preference for inhibiting NaV1.2, NaV1.6, and NaV1.7
NaV1.3; closed-state voltage protocol, current traces, concentrations up to those of IC50 curves
  Slowing of fast inactivation of NaV1.3 (in words): strongly slowing the fast inactivation of NaV1.3
NaV1.3; ratio of EC50 values
  Fold less potency in slowing fast inactivation of NaV1.3 compared to sOa1a-NH2: 4.8 fold
